According to article PMC4939875 (Nature, 2016):

Experiments:
[1] = tested on: TONSL acidic stretch and ARD (a.a. 450-692); assay: ITC of TONSL acidic stretch and ARD; format: binding, human; details: TONSL a.a. 450-692, H3K9me1 (a.a. 1-21), 20 mM Tris pH 7.5, 0.5 M NaCl
TONSL ARD = assay: GST-histone tail pull-down with recombinant TONSL ARD; format: binding, human; details: GST-H3 tail (1–59), GST-H4 tail (1–31); 20 mM Tris pH 7.5, 0.5 M NaCl; SDS-PAGE

Row | Substance | interaction between TONSL ARD with acidic stretch and H3K9me1 peptide [1] | binding of TONSL ARD to GST-histone tail (TONSL ARD)
1 | H3K9me1: peptide of H3(1-21)K9me1 (mono-methylation on Lys9) | unable to detect an interaction | 
2 | GST-H4 tail: GST-tagged human histone H4 fragment 1–31 |  | binds
